In US8658604B2, “Template-fixed beta-hairpin peptidomimetics with protease inhibitory activity” (Polyphor Ltd, priority 2005, dated 2014) one finds IC50 data, which are given here for twelve compounds.

In the assay the target is T1, Elastase from human neutrophils (Homo sapiens, UniProt P08246).
T1 sequence (P08246 30-267): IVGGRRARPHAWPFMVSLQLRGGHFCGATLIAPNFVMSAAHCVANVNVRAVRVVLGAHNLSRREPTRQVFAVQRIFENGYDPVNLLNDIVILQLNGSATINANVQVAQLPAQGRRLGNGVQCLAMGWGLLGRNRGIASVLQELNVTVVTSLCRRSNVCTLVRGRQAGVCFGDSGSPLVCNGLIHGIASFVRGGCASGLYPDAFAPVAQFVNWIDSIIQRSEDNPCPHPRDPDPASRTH
Nature of the assay: Enzymatic assay, elastase. The settings on record: Elastase IC50.

Where a SMILES comes first, the peptide text is derived from it.

On to `CCCC[C@@H]1NC(=O)[C@@H]2CCCN2C(=O)[C@H]2CCCN2C(=O)[C@H](Cc2ccc(O)cc2)NC(=O)[C@H](CCCNC(=N)N)NC(=O)[C@H](CCC(N)=O)NC(=O)[C@@H]2CCCN2C(=O)[C@@H]2CCCN2C(=O)[C@H]([C@@H](C)CC)NC(=O)[C@H](CO)NC(=O)[C@H](C)NC(=O)[C@H]([C@@H](C)O)NC(=O)[C@H](CCC(N)=O)NC1=O` [Ex. 107] (HELM PEPTIDE1{[Nle].Q.T.A.S.I.P.P.Q.R.Y.[dP].P}$PEPTIDE1,PEPTIDE1,1:R1-13:R2$$$V2.0), for which the IC50 (commonly the concentration at which inhibition is half-maximal) is 51 nM. Consider `CCCC[C@@H]1NC(=O)[C@@H]2CCCN2C(=O)[C@H]2CCCN2C(=O)[C@H](Cc2ccc(O)cc2)NC(=O)[C@H](CCSC)NC(=O)[C@H](CCC(N)=O)NC(=O)[C@@H]2CCCN2C(=O)[C@@H]2CCCN2C(=O)[C@H]([C@@H](C)CC)NC(=O)[C@H](CO)NC(=O)[C@H](C)NC(=O)[C@H]([C@@H](C)O)NC(=O)[C@H]([C@@H](C)O)NC1=O` [Ex. 108] (HELM PEPTIDE1{[Nle].T.T.A.S.I.P.P.Q.M.Y.[dP].P}$PEPTIDE1,PEPTIDE1,1:R1-13:R2$$$V2.0), for which the midpoint of inhibition, the IC50, lay at 31 nM. As to `CCCC[C@@H]1NC(=O)[C@@H]2CCCN2C(=O)[C@H]2CCCN2C(=O)[C@H](Cc2ccc(O)cc2)NC(=O)[C@H](CCC(N)=O)NC(=O)[C@H](CCC(N)=O)NC(=O)[C@@H]2CCCN2C(=O)[C@@H]2CCCN2C(=O)[C@H]([C@@H](C)CC)NC(=O)[C@H](CO)NC(=O)[C@H](C)NC(=O)[C@H]([C@@H](C)O)NC(=O)[C@H]([C@@H](C)O)NC1=O` [Ex. 110] (HELM PEPTIDE1{[Nle].T.T.A.S.I.P.P.Q.Q.Y.[dP].P}$PEPTIDE1,PEPTIDE1,1:R1-13:R2$$$V2.0), the IC50 was 38 nM. As for `CCCC[C@@H]1NC(=O)[C@@H]2CCCN2C(=O)[C@H]2CCCN2C(=O)[C@H](Cc2ccc(O)cc2)NC(=O)[C@H](CO)NC(=O)[C@H](CCC(N)=O)NC(=O)[C@@H]2CCCN2C(=O)[C@@H]2CCCN2C(=O)[C@H]([C@@H](C)CC)NC(=O)[C@H](CO)NC(=O)[C@H](C)NC(=O)[C@H]([C@@H](C)O)NC(=O)[C@H](CCC(N)=O)NC1=O` [Ex. 111] (HELM PEPTIDE1{[Nle].Q.T.A.S.I.P.P.Q.S.Y.[dP].P}$PEPTIDE1,PEPTIDE1,1:R1-13:R2$$$V2.0), the figure is 46 nM. In the case of `CCCC[C@@H]1NC(=O)[C@@H]2CCCN2C(=O)[C@H]2CCCN2C(=O)[C@H](Cc2ccc(O)cc2)NC(=O)[C@@H]2CSSC[C@H](NC1=O)C(=O)N[C@@H]([C@@H](C)O)C(=O)N[C@@H](C)C(=O)N[C@@H](CO)C(=O)N[C@@H](CC(C)C)C(=O)N1CCC[C@H]1C(=O)N1CCC[C@H]1C(=O)N[C@@H](Cc1ccc(O)cc1)C(=O)N2` [Ex. 113] (HELM PEPTIDE1{[Nle].C.T.A.S.L.P.P.Y.C.Y.[dP].P}$PEPTIDE1,PEPTIDE1,2:R3-10:R3|PEPTIDE1,PEPTIDE1,1:R1-13:R2$$$V2.0) it was 35 nM.

`CCCC[C@@H]1NC(=O)[C@@H]2CCCN2C(=O)[C@@H](CO)NC(=O)[C@H](Cc2ccc(O)cc2)NC(=O)[C@@H]2CSSC[C@H](NC1=O)C(=O)N[C@@H]([C@@H](C)O)C(=O)N[C@@H](C)C(=O)N[C@@H](CO)C(=O)N[C@@H]([C@@H](C)CC)C(=O)N1CCC[C@H]1C(=O)N1CCC[C@H]1C(=O)N[C@@H](CCC(N)=O)C(=O)N2` [Ex. 118] (HELM PEPTIDE1{A.S.I.P.P.Q.C.Y.[dS].P.[Nle].C.T}$PEPTIDE1,PEPTIDE1,7:R3-12:R3|PEPTIDE1,PEPTIDE1,1:R1-13:R2$$$V2.0) returned a concentration for half-maximal inhibition (IC50) of 43 nM. In the case of `CCCC[C@@H]1NC(=O)[C@@H]2CCCN2C(=O)[C@@H](C(C)C)NC(=O)[C@H](Cc2ccc(O)cc2)NC(=O)[C@@H]2CSSC[C@H](NC1=O)C(=O)N[C@@H]([C@@H](C)O)C(=O)N[C@@H](C)C(=O)N[C@@H](CO)C(=O)N[C@@H]([C@@H](C)CC)C(=O)N1CCC[C@H]1C(=O)N1CCC[C@H]1C(=O)N[C@@H](CCC(N)=O)C(=O)N2` [Ex. 119] (HELM PEPTIDE1{A.S.I.P.P.Q.C.Y.[dV].P.[Nle].C.T}$PEPTIDE1,PEPTIDE1,7:R3-12:R3|PEPTIDE1,PEPTIDE1,1:R1-13:R2$$$V2.0) it was 45 nM; in that of `CCCC[C@@H]1NC(=O)[C@H]([C@@H](C)O)NC(=O)[C@@H]([C@H](C)O)NC(=O)[C@H](Cc2ccc(O)cc2)NC(=O)[C@@H]2CSSC[C@H](NC1=O)C(=O)N[C@@H]([C@@H](C)O)C(=O)N[C@@H](C)C(=O)N[C@@H](CO)C(=O)N[C@@H]([C@@H](C)CC)C(=O)N1CCC[C@H]1C(=O)N1CCC[C@H]1C(=O)N[C@@H](CCC(N)=O)C(=O)N2` [Ex. 126] (HELM PEPTIDE1{A.S.I.P.P.Q.C.Y.[dT].T.[Nle].C.T}$PEPTIDE1,PEPTIDE1,7:R3-12:R3|PEPTIDE1,PEPTIDE1,1:R1-13:R2$$$V2.0), 36 nM; in that of `CCCC[C@@H]1NC(=O)[C@H]([C@@H](C)O)NC(=O)[C@@H](Cc2ccccc2)NC(=O)[C@H](Cc2ccc(O)cc2)NC(=O)[C@@H]2CSSC[C@H](NC1=O)C(=O)N[C@@H]([C@@H](C)O)C(=O)N[C@@H](C)C(=O)N[C@@H](CO)C(=O)N[C@@H]([C@@H](C)CC)C(=O)N1CCC[C@H]1C(=O)N1CCC[C@H]1C(=O)N[C@@H](CCC(N)=O)C(=O)N2` [Ex. 128] (HELM PEPTIDE1{A.S.I.P.P.Q.C.Y.[dF].T.[Nle].C.T}$PEPTIDE1,PEPTIDE1,7:R3-12:R3|PEPTIDE1,PEPTIDE1,1:R1-13:R2$$$V2.0), 40 nM.

Compound `CCCCCCCC[C@@H]1NC(=O)[C@H](CO)NC(=O)[C@H](C)NC(=O)[C@H]([C@@H](C)O)NC(=O)[C@@H]2CSSC[C@H](NC(=O)[C@H](CCC(N)=O)NC(=O)[C@@H]3CCCN3C(=O)[C@@H]3CCCN3C1=O)C(=O)N[C@@H](CCC(N)=O)C(=O)N1CCC[C@@H]1C(=O)N1CCC[C@H]1C(=O)N[C@@H](CCCC)C(=O)N2` [Ex. 129] (HELM PEPTIDE1{[Nle].C.T.A.S.[CCCCCCCC[C@H](N[*:1])C(=O)[*:2]].P.P.Q.C.Q.[dP].P}$PEPTIDE1,PEPTIDE1,2:R3-10:R3|PEPTIDE1,PEPTIDE1,1:R1-13:R2$$$V2.0) yielded a concentration for half-maximal inhibition (IC50) of 30 nM.

For the compound `CC[C@H](C)[C@@H]1NC(=O)[C@H](CO)NC(=O)[C@H](C)NC(=O)[C@H]([C@@H](C)O)NC(=O)[C@H](CCC(=O)O)NC(=O)[C@H](CCc2ccccc2)NC(=O)[C@@H]2CCCN2C(=O)[C@H]2CCCN2C(=O)[C@H](Cc2ccc(O)cc2)NC(=O)[C@H](CCCCN)NC(=O)[C@H](CCC(N)=O)NC(=O)[C@@H]2CCCN2C(=O)[C@@H]2CCCN2C1=O` [Ex. 132] (HELM PEPTIDE1{[O=C([C@H](CCc1ccccc1)N[*:1])[*:2]].E.T.A.S.I.P.P.Q.K.Y.[dP].P}$PEPTIDE1,PEPTIDE1,1:R1-13:R2$$$V2.0), 26 nM corresponded to half-maximal inhibition (IC50).

Compound `CC[C@H](C)[C@@H]1NC(=O)[C@H](CO)NC(=O)[C@H](C)NC(=O)[C@H]([C@@H](C)O)NC(=O)[C@H]([C@@H](C)O)NC(=O)[C@H](CCc2ccccc2)NC(=O)[C@@H]2CCCN2C(=O)[C@H]2CCCN2C(=O)[C@H](Cc2ccc(O)cc2)NC(=O)[C@H](CCC(N)=O)NC(=O)[C@H](CCC(N)=O)NC(=O)[C@@H]2CCCN2C(=O)[C@@H]2CCCN2C1=O` [Ex. 134] (HELM PEPTIDE1{[O=C([C@H](CCc1ccccc1)N[*:1])[*:2]].T.T.A.S.I.P.P.Q.Q.Y.[dP].P}$PEPTIDE1,PEPTIDE1,1:R1-13:R2$$$V2.0) had an IC50 of 23 nM.
